In ChEMBL document CHEMBL4411339, “Design, synthesis and antimycobacterial activity of less lipophilic Q203 derivatives containing alkaline fused ring moieties” (Bioorg Med Chem, 2019):
Values after ≈ are worked out from the molar mass of the structure shown.

Experiments:
[1] = system: Mycobacterium tuberculosis; test: Antimycobacterial activity against Mycobacterium tuberculosis H37Rv ATCC 27294 after 7 days by microplate alamar blue assay; type: functional; details: H37Rv ATCC 27294, 168 h
[2] = Elimination half life in specific pathogen free ICR mouse at 25 mg/kg, po administered as single dose by HPLC analysis; type: ADME, organism-based; details: in vivo, read-out: beta t1/2 (converted)
[3] = Tmax in specific pathogen free ICR mouse at 25 mg/kg, po administered as single dose by HPLC analysis; type: ADME, organism-based; details: in vivo
[4] = Acute toxicity in specific pathogen free ICR mouse at 500 mg/kg, po administered as single dose measured up to 7 days; type: organism-based; details: in vivo, 168 h
[5] = AUC (0 to infinity) in specific pathogen free ICR mouse at 25 mg/kg, po administered as single dose by HPLC analysis; type: ADME, organism-based; parameters: dose 25 mg/kg, time infinity, route oral; details: in vivo
[6] = Cmax in specific pathogen free ICR mouse at 25 mg/kg, po administered as single dose by HPLC analysis; type: ADME, organism-based; parameters: dose 25 mg/kg, route oral; details: in vivo
[7] = Cytotoxicity against African green monkey Vero cells assessed as reduction in cell viability after 72 hrs by MTT assay; type: cell-based; details: chlorocebus sabaeus
hERG (KCNH2) = hERG (KCNH2) (Homo sapiens, UniProt Q12809); test: Inhibition of human ERG at 10 uM relative to control
[8] = Aqueous solubility of the compound in pH 2 0.01M HCl incubated under stirred condition for 12 hrs by UV-HPLC analysis; type: physicochemical

Sequence of hERG (KCNH2) (Q12809 whole entry): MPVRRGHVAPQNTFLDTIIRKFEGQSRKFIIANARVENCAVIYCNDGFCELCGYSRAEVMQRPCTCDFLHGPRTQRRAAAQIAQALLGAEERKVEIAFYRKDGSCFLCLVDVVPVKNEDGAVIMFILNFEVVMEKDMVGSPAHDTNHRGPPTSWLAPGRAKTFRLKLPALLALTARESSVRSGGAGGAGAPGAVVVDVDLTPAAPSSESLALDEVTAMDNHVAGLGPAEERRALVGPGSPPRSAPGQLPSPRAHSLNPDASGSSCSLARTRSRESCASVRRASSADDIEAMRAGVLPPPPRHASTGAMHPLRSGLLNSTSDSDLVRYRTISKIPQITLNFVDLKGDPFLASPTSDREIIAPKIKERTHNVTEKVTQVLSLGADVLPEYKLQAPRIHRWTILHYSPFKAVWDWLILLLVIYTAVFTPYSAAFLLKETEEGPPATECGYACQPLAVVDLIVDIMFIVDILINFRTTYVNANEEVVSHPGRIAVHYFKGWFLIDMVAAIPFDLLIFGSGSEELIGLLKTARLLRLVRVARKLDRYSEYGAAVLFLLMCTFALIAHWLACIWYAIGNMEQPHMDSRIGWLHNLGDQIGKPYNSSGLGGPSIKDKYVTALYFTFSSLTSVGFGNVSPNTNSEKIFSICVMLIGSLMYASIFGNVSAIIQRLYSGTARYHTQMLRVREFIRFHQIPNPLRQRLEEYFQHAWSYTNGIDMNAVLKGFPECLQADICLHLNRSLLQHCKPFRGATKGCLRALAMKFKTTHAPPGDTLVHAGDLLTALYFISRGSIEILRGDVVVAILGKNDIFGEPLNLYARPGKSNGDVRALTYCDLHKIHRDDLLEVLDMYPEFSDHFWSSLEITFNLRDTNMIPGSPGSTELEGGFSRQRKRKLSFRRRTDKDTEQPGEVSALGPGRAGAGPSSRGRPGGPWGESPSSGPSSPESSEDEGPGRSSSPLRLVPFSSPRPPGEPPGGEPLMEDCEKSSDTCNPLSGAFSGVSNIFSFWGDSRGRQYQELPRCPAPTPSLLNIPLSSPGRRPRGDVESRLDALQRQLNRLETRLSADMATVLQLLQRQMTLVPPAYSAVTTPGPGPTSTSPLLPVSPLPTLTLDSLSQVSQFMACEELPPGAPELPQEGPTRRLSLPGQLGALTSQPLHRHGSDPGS

## CCc1nc2cc(Cl)ccn2c1C(=O)NCc1ccc2c(c1)CCN(Cc1ccc(F)cc1)C2
[1]
  MIC: 0.19 µM (≈ 0.0906 µg/mL)

## CCc1nc2ccc(Cl)cn2c1C(=O)NCc1ccc2c(c1)CCN(Cc1ccc(C(F)(F)F)cn1)C2
[1]
  MIC: 0.053 µM (≈ 0.028 µg/mL)
[2]
  half-life: 3.2 h
[3]
  Tmax: 0.583 h
[4]
  Activity: Non-Toxic
[5]
  AUC(0-inf): 25600 ng·h/mL
[6]
  Cmax: 8060 ng/mL
[7]
  CC50 at 72 h: > 64 µg/mL
hERG (KCNH2)
  inhibition at 10 µM: 25%

## CCc1nc2ccc(Cl)cn2c1C(=O)NCc1ccc2c(c1)CCN(Cc1cc(F)cc(F)c1)C2
[1]
  MIC: < 0.035 µM
[7]
  CC50 at 72 h: 14 µg/mL (≈ 28.3 µM)

## CCc1nc2ccc(Cl)cn2c1C(=O)NCc1ccc2c(c1)CCN(Cc1ccc(F)cc1)C2
[1]
  MIC: < 0.035 µM
[7]
  CC50 at 72 h: > 64 µg/mL
hERG (KCNH2)
  inhibition at 10 µM: 60%

## CCc1nc2ccc(Cl)cn2c1C(=O)NCc1ccc2c(c1)CCN(CCc1ccc(C(F)(F)F)cn1)C2
[1]
  MIC: < 0.035 µM
[2]
  half-life: 5.39 h
[3]
  Tmax: 0.25 h
[4]
  Activity: Non-Toxic
[5]
  AUC(0-inf): 54900 ng·h/mL
[6]
  Cmax: 22100 ng/mL
[8]
  solubility at 12 h: 2100 µg/mL (≈ 3870 µM)
[7]
  CC50 at 72 h: 48 µg/mL (≈ 88.6 µM)
hERG (KCNH2)
  inhibition at 10 µM: 13%

## CCc1nc2cc(Cl)ccn2c1C(=O)NCc1ccc2c(c1)CCN(Cc1ccc(C(F)(F)F)cc1)C2
[1]
  MIC: 0.91 µM (≈ 0.48 µg/mL)

## CCc1nc2cc(Cl)ccn2c1C(=O)NCc1ccc2c(c1)CCN(Cc1ccc(C(C)(C)C)cc1)C2
[1]
  MIC: 0.12 µM (≈ 0.0618 µg/mL)
[7]
  CC50 at 72 h: 14 µg/mL (≈ 27.2 µM)

## CCc1nc2ccc(Cl)cn2c1C(=O)NCc1ccc2c(c1)CCN(Cc1ccc(C(F)(F)F)cc1)C2
[1]
  MIC: 0.13 µM (≈ 0.0685 µg/mL)
[2]
  half-life: 4.98 h
[3]
  Tmax: 0.25 h
[4]
  Activity: Non-Toxic
[5]
  AUC(0-inf): 7800 ng·h/mL
[6]
  Cmax: 3000 ng/mL
[7]
  CC50 at 72 h: > 64 µg/mL
hERG (KCNH2)
  inhibition at 10 µM: 50%

## CCc1nc2cc(Cl)ccn2c1C(=O)NCc1ccc2c(c1)CCN(Cc1cc(F)cc(F)c1)C2
[1]
  MIC: < 0.035 µM
[2]
  half-life: 9.06 h
[3]
  Tmax: 0.667 h
[4]
  Activity: Non-Toxic
[5]
  AUC(0-inf): 24100 ng·h/mL
[6]
  Cmax: 5380 ng/mL
[7]
  CC50 at 72 h: 48 µg/mL (≈ 97 µM)
hERG (KCNH2)
  inhibition at 10 µM: 48%

## CCc1nc2cc(Cl)ccn2c1C(=O)NCc1ccc2c(c1)CCN(Cc1ccc(OC)cc1)C2
[1]
  MIC: < 0.035 µM
[7]
  CC50 at 72 h: 32 µg/mL (≈ 65.4 µM)
hERG (KCNH2)
  inhibition at 10 µM: 64%

## CCc1nc2ccc(Cl)cn2c1C(=O)NCc1ccc2c(c1)CCN(Cc1ccc(Br)cc1)C2
[1]
  MIC: < 0.035 µM
[7]
  CC50 at 72 h: 30 µg/mL (≈ 55.8 µM)

## CCc1nc2ccc(Cl)cn2c1C(=O)NCc1ccc2c(c1)CN(C(C)c1ccc(OC(F)(F)F)cc1)C2 (stereo not given)
[1]
  MIC: < 0.035 µM
[2]
  half-life: 9.08 h
[3]
  Tmax: 0.333 h
[4]
  Activity: Non-Toxic
[5]
  AUC(0-inf): 7610 ng·h/mL
[6]
  Cmax: 3990 ng/mL
[7]
  CC50 at 72 h: > 64 µg/mL
hERG (KCNH2)
  inhibition at 10 µM: 50%

## CCc1nc2ccc(Cl)cn2c1C(=O)NCc1ccc2c(c1)CCN(Cc1ccc(C(C)(C)C)cc1)C2
[1]
  MIC: < 0.035 µM
[2]
  half-life: 9.35 h
[3]
  Tmax: 0.5 h
[4]
  Activity: Non-Toxic
[5]
  AUC(0-inf): 4210 ng·h/mL
[6]
  Cmax: 1080 ng/mL
[7]
  CC50 at 72 h: 37 µg/mL (≈ 71.8 µM)
hERG (KCNH2)
  inhibition at 10 µM: 31%

## CCc1nc2ccc(Cl)cn2c1C(=O)NCc1ccc2c(c1)CCN(Cc1ccc([N+](=O)[O-])o1)C2
[1]
  MIC: 0.25 µM (≈ 0.123 µg/mL)

## CCc1nc2ccc(Cl)cn2c1C(=O)NCc1ccc2c(c1)CCN(Cc1ccc(C)cc1)C2
[1]
  MIC: < 0.035 µM
[7]
  CC50 at 72 h: 51 µg/mL (≈ 108 µM)
hERG (KCNH2)
  inhibition at 10 µM: 54%

## CCc1nc2cc(Cl)ccn2c1C(=O)NCc1ccc2c(c1)CCN(Cc1ccc(C)cc1)C2
[1]
  MIC: 0.27 µM (≈ 0.128 µg/mL)

## CCc1nc2ccc(Cl)cn2c1C(=O)NCc1ccc2c(c1)CCN(Cc1ccc(C(F)(F)F)nc1)C2
[1]
  MIC: 0.097 µM (≈ 0.0512 µg/mL)
[7]
  CC50 at 72 h: 7 µg/mL (≈ 13.3 µM)

## CCc1nc2cc(Cl)ccn2c1C(=O)NCc1ccc2c(c1)CCN(CCc1ccc(C(F)(F)F)nc1)C2
[1]
  MIC: 0.19 µM (≈ 0.103 µg/mL)

## CCc1nc2ccc(Cl)cn2c1C(=O)NCc1ccc2c(c1)CN(Cc1ccc(OC(F)(F)F)cc1)C2
[1]
  MIC: 0.051 µM (≈ 0.027 µg/mL)
[2]
  half-life: 5.13 h
[3]
  Tmax: 0.417 h
[4]
  Activity: Non-Toxic
[5]
  AUC(0-inf): 3600 ng·h/mL
[6]
  Cmax: 1310 ng/mL
[7]
  CC50 at 72 h: > 64 µg/mL
hERG (KCNH2)
  inhibition at 10 µM: 50%

## CCc1nc2ccc(Cl)cn2c1C(=O)NCc1ccc2c(c1)CCN(Cc1ccc(OC)cc1)C2
[1]
  MIC: < 0.035 µM
[7]
  CC50 at 72 h: 2 µg/mL (≈ 4.09 µM)

## CCc1nc2cc(Cl)ccn2c1C(=O)NCc1ccc2c(c1)CCN(CCc1ccc(C(F)(F)F)cn1)C2
[1]
  MIC: < 0.035 µM
[7]
  CC50 at 72 h: 25 µg/mL (≈ 46.1 µM)

## CCc1nc2ccc(Cl)cn2c1C(=O)NCc1ccc2c(c1)CCN(CCc1ccc(C(F)(F)F)nc1)C2
[1]
  MIC: 0.047 µM (≈ 0.0255 µg/mL)
[2]
  half-life: 1.79 h
[3]
  Tmax: 0.25 h
[4]
  Activity: Non-Toxic
[5]
  AUC(0-inf): 1480 ng·h/mL
[6]
  Cmax: 1630 ng/mL
[7]
  CC50 at 72 h: > 64 µg/mL
hERG (KCNH2)
  inhibition at 10 µM: 44%

## CCc1nc2cc(Cl)ccn2c1C(=O)NCc1ccc2c(c1)CCN(Cc1ccc(Br)cc1)C2
[1]
  MIC: 0.31 µM (≈ 0.167 µg/mL)

## CCc1nc2cc(Cl)ccn2c1C(=O)NCc1ccc2c(c1)CCN(Cc1ccc([N+](=O)[O-])o1)C2
[1]
  MIC: < 0.035 µM
[7]
  CC50 at 72 h: > 64 µg/mL
hERG (KCNH2)
  inhibition at 10 µM: 71%

## NNC(=O)c1ccncc1 [ISONIAZID]
[1]
  MIC: 0.27 µM (≈ 0.037 µg/mL)

## O=c1nc(N2CCN(CC3CCCCC3)CC2)sc2c([N+](=O)[O-])cc(C(F)(F)F)cc12 [MACOZINONE]
[1]
  MIC: < 0.035 µM
[5]
  AUC(0-inf): 1600 ng·h/mL
[8]
  solubility at 12 h: 1130 µg/mL (≈ 2480 µM)
[7]
  CC50 at 72 h: 31 µg/mL (≈ 67.9 µM)
hERG (KCNH2)
  inhibition at 10 µM: 41%

## CO[C@H]1/C=C/O[C@@]2(C)Oc3c(C)c(O)c4c(O)c(c(/C=N/N5CCN(C)CC5)c(O)c4c3C2=O)NC(=O)/C(C)=C\C=C\[C@H](C)[C@H](O)[C@@H](C)[C@@H](O)[C@@H](C)[C@H](OC(C)=O)[C@@H]1C [RIFAMPIN]
[1]
  MIC: 0.12 µM (≈ 0.0988 µg/mL)

## CCc1nc2ccc(Cl)cn2c1C(=O)NCc1ccc(N2CCC(c3ccc(OC(F)(F)F)cc3)CC2)cc1 [TELACEBEC]
[1]
  MIC: < 0.035 µM
[2]
  half-life: 18.7 h
[3]
  Tmax: 2.67 h
[5]
  AUC(0-inf): 46600 ng·h/mL
[6]
  Cmax: 3780 ng/mL
[8]
  solubility at 12 h: 79 µg/mL (≈ 142 µM)
[7]
  CC50 at 72 h: > 64 µg/mL
hERG (KCNH2)
  inhibition at 10 µM: 50%
